Assay results taken from publication PMC8001506 (Marine Drugs, 2021).
“Also recorded” adds a separate entry of the source. Where a SMILES comes first, the peptide text is derived from it. Bridges are numbered along the chain shown (N, C = ends).

Tests used:
[1] = molecular target: rat α4β4 nAChR (Rattus norvegicus, UniProt P09483+P12392); test: cell-based; assay type: cell-based
[2] = molecular target: rat α2β4 nAChR (Rattus norvegicus, UniProt P12389+P12392); test: cell-based; assay type: cell-based
[3] = system: common mammalian nAChR combinations; assay type: cell-based
[4] = molecular target: rat α4β2 nAChR (Rattus norvegicus, UniProt P09483+P12390); test: cell-based; assay type: cell-based
[5] = molecular target: human α9α10 nAChR (Homo sapiens, UniProt Q9GZZ6+Q9UGM1); test: cell-based; assay type: cell-based
[6] = molecular target: rat α6/α3β2β3 nAChR (Rattus norvegicus, UniProt P04757+P12390+P12391+P43143); test: cell-based
[7] = molecular target: rat α2β2 nAChR (Rattus norvegicus, UniProt P12389+P12390); test: cell-based; assay type: cell-based
[8] = molecular target: rat α3β2 nAChR (Rattus norvegicus, UniProt P04757+P12390); test: cell-based
[9] = molecular target: rat α3β4 nAChR (Rattus norvegicus, UniProt P04757+P12392); test: cell-based; assay type: cell-based
[10] = molecular target: rat α7 nAChR (Rattus norvegicus, UniProt Q05941); test: cell-based; assay type: cell-based
Chain of rat α7 nAChR (Q05941 23-502 limits assumed): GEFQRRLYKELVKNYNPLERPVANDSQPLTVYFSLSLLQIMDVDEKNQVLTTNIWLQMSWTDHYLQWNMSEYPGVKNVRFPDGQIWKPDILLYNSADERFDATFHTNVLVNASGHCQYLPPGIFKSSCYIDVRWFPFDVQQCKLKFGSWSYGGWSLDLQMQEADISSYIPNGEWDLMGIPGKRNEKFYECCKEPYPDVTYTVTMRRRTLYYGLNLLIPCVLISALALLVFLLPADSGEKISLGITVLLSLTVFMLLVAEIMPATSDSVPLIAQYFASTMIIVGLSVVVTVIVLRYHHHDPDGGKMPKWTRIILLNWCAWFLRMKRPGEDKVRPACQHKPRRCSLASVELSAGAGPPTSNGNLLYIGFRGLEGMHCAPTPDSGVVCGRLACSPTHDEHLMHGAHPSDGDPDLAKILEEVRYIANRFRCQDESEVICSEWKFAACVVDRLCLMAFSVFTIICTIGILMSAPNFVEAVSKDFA

Chain of rat α2β4 nAChR (P12389 28-511 limits assumed): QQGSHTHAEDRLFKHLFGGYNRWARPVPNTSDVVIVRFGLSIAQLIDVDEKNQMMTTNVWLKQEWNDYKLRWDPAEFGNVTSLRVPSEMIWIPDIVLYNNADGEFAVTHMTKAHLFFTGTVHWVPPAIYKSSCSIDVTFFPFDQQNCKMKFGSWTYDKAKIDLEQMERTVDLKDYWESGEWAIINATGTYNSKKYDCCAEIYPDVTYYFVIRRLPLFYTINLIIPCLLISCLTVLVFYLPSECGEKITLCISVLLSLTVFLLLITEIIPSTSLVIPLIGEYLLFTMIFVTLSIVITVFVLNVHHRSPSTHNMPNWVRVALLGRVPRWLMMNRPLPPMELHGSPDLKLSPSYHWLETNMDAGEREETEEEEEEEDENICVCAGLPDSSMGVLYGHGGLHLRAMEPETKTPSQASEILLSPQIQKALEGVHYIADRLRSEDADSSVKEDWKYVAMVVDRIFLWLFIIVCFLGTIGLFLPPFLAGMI
Chain of rat α2β4 nAChR (P12392 21-495 limits assumed): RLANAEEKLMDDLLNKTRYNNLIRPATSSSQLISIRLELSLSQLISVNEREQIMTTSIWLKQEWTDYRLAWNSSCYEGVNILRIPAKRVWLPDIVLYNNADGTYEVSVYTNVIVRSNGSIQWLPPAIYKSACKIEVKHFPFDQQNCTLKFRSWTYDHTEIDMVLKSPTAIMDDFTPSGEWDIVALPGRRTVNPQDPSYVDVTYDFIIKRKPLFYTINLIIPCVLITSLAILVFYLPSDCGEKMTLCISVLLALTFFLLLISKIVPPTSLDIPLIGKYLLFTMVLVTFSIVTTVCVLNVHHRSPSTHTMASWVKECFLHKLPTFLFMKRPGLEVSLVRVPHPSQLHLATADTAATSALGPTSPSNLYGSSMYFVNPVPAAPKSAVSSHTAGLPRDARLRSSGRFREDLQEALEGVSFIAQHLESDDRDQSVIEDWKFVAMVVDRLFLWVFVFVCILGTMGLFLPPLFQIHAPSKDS
Chain of rat α2β2 nAChR (P12389 28-511 limits assumed): as the sequence (P12389 28-511 limits assumed) above
Chain of rat α2β2 nAChR (P12390 25-500 limits assumed): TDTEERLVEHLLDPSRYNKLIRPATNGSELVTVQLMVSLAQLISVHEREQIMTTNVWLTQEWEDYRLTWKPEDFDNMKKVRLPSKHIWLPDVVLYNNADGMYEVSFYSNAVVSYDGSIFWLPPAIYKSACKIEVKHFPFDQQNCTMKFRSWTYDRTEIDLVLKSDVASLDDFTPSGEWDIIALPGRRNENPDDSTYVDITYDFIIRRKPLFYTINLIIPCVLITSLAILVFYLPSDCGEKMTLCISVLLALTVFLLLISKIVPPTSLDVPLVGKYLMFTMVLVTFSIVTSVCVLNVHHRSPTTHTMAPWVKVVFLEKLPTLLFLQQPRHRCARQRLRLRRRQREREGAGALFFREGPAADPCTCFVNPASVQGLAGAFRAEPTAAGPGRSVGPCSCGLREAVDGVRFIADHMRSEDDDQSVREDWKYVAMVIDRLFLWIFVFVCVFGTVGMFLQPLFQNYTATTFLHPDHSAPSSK
Chain of rat α4β4 nAChR (P09483 31-630 limits assumed): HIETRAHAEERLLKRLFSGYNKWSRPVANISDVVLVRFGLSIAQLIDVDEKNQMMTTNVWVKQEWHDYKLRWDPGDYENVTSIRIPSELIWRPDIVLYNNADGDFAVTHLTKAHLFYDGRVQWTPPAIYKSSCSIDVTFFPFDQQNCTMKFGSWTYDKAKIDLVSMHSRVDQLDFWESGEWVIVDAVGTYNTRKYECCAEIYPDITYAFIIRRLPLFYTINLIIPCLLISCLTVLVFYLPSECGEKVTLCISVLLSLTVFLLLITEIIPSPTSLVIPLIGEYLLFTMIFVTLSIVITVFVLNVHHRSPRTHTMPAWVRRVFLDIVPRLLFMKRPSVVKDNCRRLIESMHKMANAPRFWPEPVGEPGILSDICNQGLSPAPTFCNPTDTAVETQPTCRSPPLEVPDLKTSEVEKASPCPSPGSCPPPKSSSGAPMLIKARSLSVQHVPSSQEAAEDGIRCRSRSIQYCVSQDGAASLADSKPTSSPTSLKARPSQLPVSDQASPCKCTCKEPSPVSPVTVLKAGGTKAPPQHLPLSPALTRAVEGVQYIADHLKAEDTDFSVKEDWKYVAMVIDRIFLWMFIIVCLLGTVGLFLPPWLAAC
Chain of rat α4β4 nAChR (P12392 21-495 limits assumed): as the sequence (P12392 21-495 limits assumed) above
Chain of rat α4β2 nAChR (P09483 31-630 limits assumed): as the sequence (P09483 31-630 limits assumed) above
Chain of rat α4β2 nAChR (P12390 25-500 limits assumed): as the sequence (P12390 25-500 limits assumed) above
Chain of rat α3β4 nAChR (P04757 26-499 limits assumed): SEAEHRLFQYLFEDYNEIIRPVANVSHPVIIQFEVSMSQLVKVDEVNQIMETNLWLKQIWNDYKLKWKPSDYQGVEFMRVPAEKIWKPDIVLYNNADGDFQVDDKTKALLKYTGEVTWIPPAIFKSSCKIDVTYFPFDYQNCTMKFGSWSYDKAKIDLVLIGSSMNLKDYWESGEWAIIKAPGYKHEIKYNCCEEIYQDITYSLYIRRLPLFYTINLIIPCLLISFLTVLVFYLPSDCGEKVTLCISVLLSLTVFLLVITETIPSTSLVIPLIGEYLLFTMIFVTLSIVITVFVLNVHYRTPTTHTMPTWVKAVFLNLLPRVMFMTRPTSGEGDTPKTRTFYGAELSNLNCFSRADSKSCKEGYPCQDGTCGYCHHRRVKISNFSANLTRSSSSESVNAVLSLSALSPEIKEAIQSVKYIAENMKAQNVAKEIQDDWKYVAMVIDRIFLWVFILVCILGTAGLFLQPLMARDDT
Chain of rat α3β4 nAChR (P12392 21-495 limits assumed): as the sequence (P12392 21-495 limits assumed) above
Chain of human α9α10 nAChR (Q9UGM1 26-479 limits assumed): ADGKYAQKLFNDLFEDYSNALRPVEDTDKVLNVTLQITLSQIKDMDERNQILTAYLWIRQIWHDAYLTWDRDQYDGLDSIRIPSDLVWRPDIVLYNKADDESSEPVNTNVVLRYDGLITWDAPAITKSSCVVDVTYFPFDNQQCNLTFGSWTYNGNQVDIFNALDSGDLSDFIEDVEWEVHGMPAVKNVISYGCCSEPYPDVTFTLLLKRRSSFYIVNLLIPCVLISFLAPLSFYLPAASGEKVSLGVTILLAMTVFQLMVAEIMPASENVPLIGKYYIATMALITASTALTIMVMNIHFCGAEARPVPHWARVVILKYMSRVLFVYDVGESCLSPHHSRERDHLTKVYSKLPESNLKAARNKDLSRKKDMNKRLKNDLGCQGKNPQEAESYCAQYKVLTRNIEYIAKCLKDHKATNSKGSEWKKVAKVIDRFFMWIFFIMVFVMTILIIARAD
Chain of human α9α10 nAChR (Q9GZZ6 25-450 limits assumed): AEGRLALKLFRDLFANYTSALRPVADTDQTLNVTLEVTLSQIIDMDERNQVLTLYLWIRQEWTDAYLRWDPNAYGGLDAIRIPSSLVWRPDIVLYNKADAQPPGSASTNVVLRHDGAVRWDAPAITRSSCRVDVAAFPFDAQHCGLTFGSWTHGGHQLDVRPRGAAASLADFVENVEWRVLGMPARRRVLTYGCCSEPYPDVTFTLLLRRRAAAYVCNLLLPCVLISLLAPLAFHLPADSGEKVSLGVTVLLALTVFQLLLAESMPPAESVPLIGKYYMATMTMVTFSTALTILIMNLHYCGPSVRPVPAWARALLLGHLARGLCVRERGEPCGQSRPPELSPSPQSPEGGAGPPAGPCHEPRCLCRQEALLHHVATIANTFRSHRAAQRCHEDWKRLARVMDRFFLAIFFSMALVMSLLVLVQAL
Chain of rat α3β2 nAChR (P04757 26-499 limits assumed): as the sequence (P04757 26-499 limits assumed) above
Chain of rat α3β2 nAChR (P12390 25-500 limits assumed): as the sequence (P12390 25-500 limits assumed) above

Compound: CC(C)C[C@@H]1NC(=O)[C@H](CC(=O)O)NC(=O)[C@H](CO)NC(=O)[C@H](Cc2c[nH]cn2)NC(=O)[C@H](CCC(N)=O)NC(=O)[C@H](C(C)C)NC(=O)[C@H](CCC(N)=O)NC(=O)[C@@H]2CSSC[C@H](N)C(=O)N[C@@H](CSSC[C@@H](C(=O)O)NC1=O)C(=O)N[C@@H](CO)C(=O)N[C@@H](CC(N)=O)C(=O)N1CCC[C@H]1C(=O)N[C@@H](C)C(=O)N2 [Δ-CIC] (H-CCSNPACQVQHSDLC-OH; disulfide 1-7, 2-15)
- IC50 [1]: > 10 µM
- inhibition (in words) [1]: no inhibition was detected; also recorded: No effects were observed
- IC50 [2]: > 10 µM
- inhibition (in words) [2]: no inhibition was detected; also recorded: No effects were observed
- dissociation behavior, CIC versus Δ-CIC [3]: no difference in dissociation behavior
- IC50 [4]: > 10 µM
- inhibition (in words) [4]: no inhibition was detected; also recorded: No effects were observed
- IC50 [5]: > 10 µM
- inhibition (in words) [5]: no inhibition was detected; also recorded: No effects were observed
- IC50 [6]: 1.08 µM
- IC50 [7]: > 10 µM
- inhibition (in words) [7]: no inhibition was detected; also recorded: No effects were observed
- IC50 [8]: 4.56 µM
- IC50 [9]: > 10 µM
- inhibition (in words) [9]: no inhibition was detected; also recorded: No effects were observed
- IC50 [10]: > 10 µM
- inhibition (in words) [10]: no inhibition was detected; also recorded: No effects were observed
